One assay concerns the target ErbB2 WT (Homo sapiens (Human), UniProt P04626). Kind of assay: ErbB Enzyme Assay (HTRF KinEASE-TK), Assay 2. It counts as biochemical. As for the experimental part: (§1) The kinases were incubated with 250 nM TK-substrate biotin (CisBio, part of cat #62TKOPEC) at 1 mM ATP along with test compounds in a buffer consisting of 25 mM HEPES, pH 7.4, 10 mM MgCl2, 0.01% Triton X-100, and 2% DMSO in a volume of 8 μL. […] After 30-minute incubation at 22° C., the reaction was quenched by adding 8 μL of quench solution containing 62.5 nM Sa-XL665 and 0.25×TK-Ab-Cryptate in HTRF detection buffer (all from CisBio, part of cat #62TKOPEC).
Background: In TR-FRET formats the signal depends on donor and acceptor labels being close together.

Another assay concerns the target EGFR (Homo sapiens (Human), UniProt P00533). The experiment in a line: ErbB Enzyme Assay (HTRF KinEASE-TK), Assay 3. It counts as biochemical. On the procedure:
as §1, with “#62TKOPEC). […] A 4-parameter logistic curve was fit to the POC values as a function of the concentration of compound, and the IC50 value was the point where the best-fit curve crossed 50 POC.” for “#62TKOPEC).”

The target of assay [1] is ErbB2 with Exon 20 YVMA insertion (HER2-YVMA) (Homo sapiens (Human), UniProt P04626, INS775YVMA). The experiment in a line: Cellular Phosphorylation Assay, Assay 4 (constitutive ErbB2 phosphorylation, NIH 3T3 cells). It counts as cell-based. On the procedure: (§2) NIH 3T3 cells were engineered to express ErbB2 with Exon 20 YVMA insertion (HER2-YVMA (SEQ ID NO: 2); Assay 4) or EGFR wild type (EGFR WT; Assay 5) with constructs obtained from GenScript and grown in DMEM supplemented with 10% fetal bovine serum and 15 μg/ml blasticidin. […] Serially diluted compounds were added to the plates for 1 hour at 37° C./5% CO2. EGFR WT cells were stimulated with 100 ng/ml rEGF for an additional 10 minutes at 37° C./5% CO2.
Sequence of ErbB2 with Exon 20 YVMA insertion (HER2-YVMA) (P04626 other isoform, or with tags, fused parts or gaps ins YVMA behind 775): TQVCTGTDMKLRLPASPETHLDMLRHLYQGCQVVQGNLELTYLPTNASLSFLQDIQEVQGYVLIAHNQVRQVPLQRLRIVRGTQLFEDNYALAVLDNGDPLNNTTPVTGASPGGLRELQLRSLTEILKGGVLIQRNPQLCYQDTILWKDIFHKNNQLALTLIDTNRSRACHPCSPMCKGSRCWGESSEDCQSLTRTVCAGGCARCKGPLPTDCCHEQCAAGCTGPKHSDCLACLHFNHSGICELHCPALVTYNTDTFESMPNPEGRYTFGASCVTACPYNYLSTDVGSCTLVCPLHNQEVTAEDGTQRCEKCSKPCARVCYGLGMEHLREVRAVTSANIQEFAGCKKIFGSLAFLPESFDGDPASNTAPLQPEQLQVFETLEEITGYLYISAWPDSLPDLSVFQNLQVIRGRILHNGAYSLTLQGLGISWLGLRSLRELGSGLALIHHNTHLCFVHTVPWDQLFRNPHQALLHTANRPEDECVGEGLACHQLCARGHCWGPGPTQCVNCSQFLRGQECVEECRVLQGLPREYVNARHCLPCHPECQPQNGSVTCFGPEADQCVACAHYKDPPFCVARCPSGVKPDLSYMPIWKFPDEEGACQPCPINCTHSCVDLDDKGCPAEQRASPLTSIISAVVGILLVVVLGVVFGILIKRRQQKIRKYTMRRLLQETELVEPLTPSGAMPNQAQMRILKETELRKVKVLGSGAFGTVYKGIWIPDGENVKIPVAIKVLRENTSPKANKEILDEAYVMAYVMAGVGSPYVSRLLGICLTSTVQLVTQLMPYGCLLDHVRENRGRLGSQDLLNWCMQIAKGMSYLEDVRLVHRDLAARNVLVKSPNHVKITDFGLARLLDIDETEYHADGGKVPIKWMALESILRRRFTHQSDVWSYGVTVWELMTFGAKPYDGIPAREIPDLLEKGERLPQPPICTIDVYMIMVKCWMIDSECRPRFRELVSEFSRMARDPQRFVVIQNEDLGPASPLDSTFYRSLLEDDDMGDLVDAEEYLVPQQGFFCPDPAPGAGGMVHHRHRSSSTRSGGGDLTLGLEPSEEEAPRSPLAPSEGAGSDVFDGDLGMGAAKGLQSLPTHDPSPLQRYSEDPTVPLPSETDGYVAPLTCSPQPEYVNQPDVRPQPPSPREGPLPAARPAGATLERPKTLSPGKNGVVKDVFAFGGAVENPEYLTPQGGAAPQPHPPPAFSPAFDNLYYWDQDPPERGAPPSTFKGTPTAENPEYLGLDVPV
(§3) After compound incubation, medium was removed from the cells, which were then fixed in 3.7% formaldehyde in PBS at room temperature for 20 minutes. Following a wash with PBS, cells were permeabilized with 100% methanol at room temperature for 10 minutes. Cells were then washed with PBS/0.05% Tween-20 and blocked with Odyssey blocking buffer (LI-COR Biosciences) for at least 1 hour at room temperature. Antibodies to phosphorylated ErbB2 (Y1196, Cell Signaling #6942) or phosphorylated EGFR (Y1068, Cell Signaling #3777) and GAPDH (Millipore #MAB374) were added to the cells in blocking buffer containing 0.05% azide and incubated overnight at 4° C. After washing with PBS/0.05% Tween-20, the cells were incubated with fluorescently labeled secondary anti-rabbit antibody (LiCOR, IRDye 800CW #926-32211) and anti-mouse antibody (Molecular Probes, Alexa Fluor 680 #A21058) for 1 hour at room temperature in the dark. Cells were then washed and analyzed for fluorescence at both wavelengths using the Odyssey Infrared Imaging System (LI-COR Biosciences). Phosphorylated ErbB2 and EGFR signal was normalized to GAPDH signal to generate curves and calculate IC50 values.

The next assay has as its target EGFR wild type (EGFR WT) (Homo sapiens (Human), UniProt P00533). The experiment in a line: Cellular Phosphorylation Assay, Assay 5 (EGF-stimulated EGFR phosphorylation, NIH 3T3 cells). It counts as cell-based. On the procedure:
as §2, §3

The mark [2] stands for this setting: cellular ErbB2 YVMA phosphorylation.
Where [3] appears, read: cellular EGFR WT phosphorylation, EGF-stimulated.
The mark [4] stands for this setting: EGF-stimulated EGFR WT phosphorylation.

Sequence of EGFR wild type (EGFR WT) (P00533 25-1210): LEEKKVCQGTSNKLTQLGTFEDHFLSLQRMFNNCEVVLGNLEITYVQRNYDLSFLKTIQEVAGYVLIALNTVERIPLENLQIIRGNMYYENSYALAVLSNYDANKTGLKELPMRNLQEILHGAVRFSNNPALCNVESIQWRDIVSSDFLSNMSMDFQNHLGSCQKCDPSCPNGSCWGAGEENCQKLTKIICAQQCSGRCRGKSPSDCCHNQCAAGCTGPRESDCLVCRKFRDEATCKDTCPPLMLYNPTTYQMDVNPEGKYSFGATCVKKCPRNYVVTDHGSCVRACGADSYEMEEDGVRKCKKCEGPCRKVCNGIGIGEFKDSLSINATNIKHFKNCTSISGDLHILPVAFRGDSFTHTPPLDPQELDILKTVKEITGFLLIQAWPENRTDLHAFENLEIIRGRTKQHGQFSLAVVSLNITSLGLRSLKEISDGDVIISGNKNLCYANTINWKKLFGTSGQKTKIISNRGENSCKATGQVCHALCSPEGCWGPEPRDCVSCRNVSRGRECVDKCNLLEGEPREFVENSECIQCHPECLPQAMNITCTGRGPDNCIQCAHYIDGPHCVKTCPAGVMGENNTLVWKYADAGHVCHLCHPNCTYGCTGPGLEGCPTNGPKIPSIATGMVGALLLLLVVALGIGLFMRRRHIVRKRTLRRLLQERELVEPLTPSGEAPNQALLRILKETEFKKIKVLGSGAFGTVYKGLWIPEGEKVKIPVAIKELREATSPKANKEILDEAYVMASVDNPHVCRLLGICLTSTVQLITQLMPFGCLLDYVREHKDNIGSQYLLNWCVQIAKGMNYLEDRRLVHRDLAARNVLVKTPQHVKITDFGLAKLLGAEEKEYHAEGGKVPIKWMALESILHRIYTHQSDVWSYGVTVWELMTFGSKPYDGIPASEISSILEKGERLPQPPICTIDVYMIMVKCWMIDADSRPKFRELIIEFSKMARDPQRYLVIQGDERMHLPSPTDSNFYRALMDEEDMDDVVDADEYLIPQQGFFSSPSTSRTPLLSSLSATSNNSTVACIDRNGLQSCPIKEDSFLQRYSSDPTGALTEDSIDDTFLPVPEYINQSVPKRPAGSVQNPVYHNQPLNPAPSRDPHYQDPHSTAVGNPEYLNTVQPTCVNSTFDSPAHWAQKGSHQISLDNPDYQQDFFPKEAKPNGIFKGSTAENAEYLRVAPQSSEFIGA
Sequence of EGFR (P00533 25-1210): as above
Sequence of ErbB2 WT (P04626 23-1255): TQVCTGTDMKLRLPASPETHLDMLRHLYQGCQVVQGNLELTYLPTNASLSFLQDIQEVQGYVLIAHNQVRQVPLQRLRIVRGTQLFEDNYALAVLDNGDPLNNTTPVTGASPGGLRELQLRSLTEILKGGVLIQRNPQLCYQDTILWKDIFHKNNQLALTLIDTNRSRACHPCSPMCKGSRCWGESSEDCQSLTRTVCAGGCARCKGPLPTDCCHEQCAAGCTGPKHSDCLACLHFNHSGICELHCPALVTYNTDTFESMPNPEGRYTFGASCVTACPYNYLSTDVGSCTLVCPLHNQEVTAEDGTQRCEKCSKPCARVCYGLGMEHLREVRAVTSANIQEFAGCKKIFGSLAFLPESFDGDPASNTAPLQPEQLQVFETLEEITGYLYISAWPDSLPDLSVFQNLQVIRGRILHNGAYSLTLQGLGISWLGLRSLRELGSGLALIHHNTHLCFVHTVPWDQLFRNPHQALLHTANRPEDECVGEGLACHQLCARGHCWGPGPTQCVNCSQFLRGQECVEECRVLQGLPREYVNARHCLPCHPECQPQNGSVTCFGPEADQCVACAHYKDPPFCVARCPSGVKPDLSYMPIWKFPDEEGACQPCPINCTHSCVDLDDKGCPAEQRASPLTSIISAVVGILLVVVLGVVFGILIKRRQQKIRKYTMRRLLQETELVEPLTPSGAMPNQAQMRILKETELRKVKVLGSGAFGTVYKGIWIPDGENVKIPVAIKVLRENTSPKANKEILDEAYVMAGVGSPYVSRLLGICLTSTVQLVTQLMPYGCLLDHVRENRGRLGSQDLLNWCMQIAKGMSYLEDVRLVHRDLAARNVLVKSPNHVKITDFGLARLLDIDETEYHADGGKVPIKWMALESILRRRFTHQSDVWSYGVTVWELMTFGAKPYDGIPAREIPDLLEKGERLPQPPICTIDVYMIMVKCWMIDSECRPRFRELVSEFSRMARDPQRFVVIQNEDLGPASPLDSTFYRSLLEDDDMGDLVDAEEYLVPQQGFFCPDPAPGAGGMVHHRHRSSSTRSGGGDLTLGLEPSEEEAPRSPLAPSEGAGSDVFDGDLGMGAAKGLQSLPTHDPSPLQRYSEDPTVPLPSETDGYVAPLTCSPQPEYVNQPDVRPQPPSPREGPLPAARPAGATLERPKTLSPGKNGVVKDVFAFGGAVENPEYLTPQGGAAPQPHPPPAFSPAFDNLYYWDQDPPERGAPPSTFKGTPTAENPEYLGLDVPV

For the compound `C=CC(=O)N1C[C@H]2CC[C@@H]1[C@@H](c1ccc3ncnc(Nc4ccc(Oc5cnc6c(c5)ncn6C)c(C)c4F)c3n1)C2` [Example 427], the IC50 (usually the point on the concentration scale where inhibition reaches its midpoint) was 104 nM against ErbB2 WT (ErbB2 WT enzyme assay), 2990 nM at EGFR (EGFR enzyme assay), 56.4 nM in assay [1] (setting [2]) and no less than 5000 nM on EGFR wild type (EGFR WT) (setting [3]).

Regarding `C=CC(=O)N1C[C@@H]2C[C@H](c3ccc4ncnc(Nc5ccc(Oc6ccc7c(c6)ncn7C)c(C)c5F)c4n3)C[C@H]1C2` [Example 389], the IC50 on ErbB2 WT (ErbB2 WT enzyme assay) stood at 20.4 nM; against EGFR (EGFR enzyme assay), 277 nM; in assay [1] (setting [2]), 31.1 nM; at EGFR wild type (EGFR WT) (setting [3]) it was 685 nM.

`C=CC(=O)N1C[C@@H]2C[C@H]1CC[C@@H]2c1ccc2ncnc(Nc3ccc(Oc4ccc5c(c4)ncn5C)c(C)c3F)c2n1` [Example 379]: the IC50 is 29.2 nM against ErbB2 WT (ErbB2 WT enzyme assay), 4210 nM against EGFR (EGFR enzyme assay), 36.5 nM in assay [1] (setting [2]) and no less than 5000 nM at EGFR wild type (EGFR WT) (setting [3]).

As for `C=CC(=O)N1CCN(c2ccc3ncnc(Nc4ccc(Oc5ccn6ncnc6c5)c(Cl)c4F)c3n2)CC12CC2` [Example 363], the IC50 came to 1.8 nM against ErbB2 WT (ErbB2 WT enzyme assay), 22.3 nM on EGFR (EGFR enzyme assay), 3.2 nM in assay [1] (setting [2]) and 35.8 nM at EGFR wild type (EGFR WT) (setting [3]).

On to `C=CC(=O)N1C2CCC1CN(c1ccc3ncnc(Nc4ccc(Oc5ccc6c(c5)ncn6C)c(C)c4F)c3n1)C2` [Example 431], for which the IC50 is 44.9 nM at ErbB2 WT (ErbB2 WT enzyme assay), 712 nM against EGFR (EGFR enzyme assay), 13.1 nM in assay [1] (setting [2]) and 393 nM on EGFR wild type (EGFR WT) (setting [3]).

As to `C=CC(=O)N1C[C@@H]2C[C@H]1CN(c1ccc3ncnc(Nc4cc(C)c(Oc5ccc6c(c5)ncn6C)cc4F)c3n1)C2` [Example 102, 1-((1R,5S)-3-(4-((2-fluoro-5-methyl-4-((1-methyl-1H-benzo[d]imidazol-5-yl)oxy)phenyl)amino)pyrido[3,2-d]pyrimidin-6-yl)-3,6-diazabicyclo[3.2.1]octan-6-yl)prop-2-en-1-one], the IC50 on ErbB2 WT (ErbB2 WT enzyme) is 461 nM; against EGFR (EGFR enzyme) it was no less than 10000 nM; in assay [1] (ErbB2 YVMA phosphorylation), 15.4 nM; at EGFR wild type (EGFR WT) (setting [4]) it was no less than 5000 nM.

For the compound `C=CC(=O)N1CCN(c2ccc3ncnc(Nc4ccc(Oc5ccn6ncnc6c5)cc4C(F)(F)F)c3n2)CC1(C)C` [Example 448], the IC50 against ErbB2 WT (ErbB2 WT enzyme assay) is 370 nM; against EGFR (EGFR enzyme assay), no less than 10000 nM; in assay [1] (setting [2]) it was 87.6 nM; at EGFR wild type (EGFR WT) (setting [3]) it was 3440 nM.

For the compound `C=CC(=O)N1[C@@H]2CCC[C@H]1[C@@H](c1ccc3ncnc(Nc4cc(C)c(Oc5ccn6ncnc6c5)cc4F)c3n1)C2` [Example 414], the IC50 was 30.1 nM against ErbB2 WT (ErbB2 WT enzyme assay), 866 nM at EGFR (EGFR enzyme assay), 57.6 nM in assay [1] (setting [2]) and no less than 5000 nM against EGFR wild type (EGFR WT) (setting [3]).

As to `C=CC(=O)N1CCN(c2ccc3ncnc(Nc4cc(Cl)c(Oc5cnc6c(c5)ncn6C)cc4F)c3n2)C[C@H]1C1CC1` [Example 430], the IC50 was 308 nM against ErbB2 WT (ErbB2 WT enzyme assay), no less than 10000 nM at EGFR (EGFR enzyme assay), 38.2 nM in assay [1] (setting [2]) and no less than 5000 nM against EGFR wild type (EGFR WT) (setting [3]).

With `C=CC(=O)N1CCC(Oc2ccc3ncnc(Nc4ccc(Oc5cnn6c(C)cnc6c5)c(C)c4F)c3n2)CC1` [Example 55, 1-(4-((4-((2-fluoro-3-methyl-4-((3-methylimidazo[1,2-b]pyridazin-7-yl)oxy)phenyl)amino)pyrido[3,2-d]pyrimidin-6-yl)oxy)piperidin-1-yl)prop-2-en-1-one], the IC50 is 2040 nM on ErbB2 WT (ErbB2 WT enzyme), no less than 10000 nM on EGFR (EGFR enzyme), 50.8 nM in assay [1] (ErbB2 YVMA phosphorylation) and 930 nM against EGFR wild type (EGFR WT) (setting [4]).

As to `C=C(F)C(=O)N1CCN(c2ccc3ncnc(Nc4ccc(Oc5ccn6ncnc6c5)c(C)c4F)c3n2)CC1(C)C` [Example 187, 1-(4-(4-((4-([1,2,4]triazolo[1,5-a]pyridin-7-yloxy)-2-fluoro-3-methylphenyl)amino)pyrido[3,2-d]pyrimidin-6-yl)-2,2-dimethylpiperazin-1-yl)-2-fluoroprop-2-en-1-one], the IC50 at ErbB2 WT (ErbB2 WT enzyme) is 100 nM; on EGFR (EGFR enzyme) it was no less than 10000 nM; in assay [1] (ErbB2 YVMA phosphorylation) it was 273 nM; against EGFR wild type (EGFR WT) (setting [4]) it was no less than 5000 nM.

As to `C=CC(=O)N1C[C@H]2C[C@@H]1[C@H](c1ccc3ncnc(Nc4cc(C)c(Oc5ccn6ncnc6c5)cc4F)c3n1)C2` [Example 371], the IC50 on ErbB2 WT (ErbB2 WT enzyme assay) is 55 nM; against EGFR (EGFR enzyme assay), 3440 nM; in assay [1] (setting [2]), 82.4 nM; against EGFR wild type (EGFR WT) (setting [3]), no less than 5000 nM.

Turning to `C=CC(=O)N1CCC(Oc2ccc3ncnc(Nc4ccc(Oc5ccc6cn(C)nc6c5)c(F)c4)c3n2)CC1` [Example 12, 1-(4-((4-((3-fluoro-4-((2-methyl-2H-indazol-6-yl)oxy)phenyl)amino)pyrido[3,2-d]pyrimidin-6-yl)oxy)piperidin-1-yl)prop-2-en-1-one], the IC50 was 1030 nM on ErbB2 WT (ErbB2 WT enzyme), no less than 10000 nM against EGFR (EGFR enzyme), 193 nM in assay [1] (ErbB2 YVMA phosphorylation) and no less than 5000 nM against EGFR wild type (EGFR WT) (setting [4]).

`C=CC(=O)Nc1ccc2ncnc(Nc3ccc(Oc4ccc5c(c4)ncn5C)c(C)c3)c2n1` [Example 18, N-(4-((3-methyl-4-((1-methyl-1H-benzo[d]imidazol-5-yl)oxy)phenyl)amino)pyrido[3,2-d]pyrimidin-6-yl)acrylamide]: the IC50 against ErbB2 WT (ErbB2 WT enzyme) was determined as 42.3 nM; at EGFR (EGFR enzyme), 369 nM; in assay [1] (ErbB2 YVMA phosphorylation), 443 nM.

With `C=CC(=O)N(C)c1ccc2ncnc(Nc3ccc(Oc4ccc5c(c4)ncn5C)c(C)c3)c2n1` [Example 23, N-methyl-N-(4-((3-methyl-4-((1-methyl-1H-benzo[d]imidazol-5-yl)oxy)phenyl)amino)pyrido[3,2-d]pyrimidin-6-yl)acrylamide], the IC50 stood at 72.7 nM against ErbB2 WT (ErbB2 WT enzyme), 709 nM on EGFR (EGFR enzyme) and 63.9 nM in assay [1] (ErbB2 YVMA phosphorylation).

As to `Cc1c(Oc2ccn3ncnc3c2)ccc(Nc2ncnc3ccc(N4CCN(C(=O)C56CC5C6)C(C)(C)C4)nc23)c1F` (stereo not shown) [Example 186, (4-(4-((4-([1,2,4]triazolo[1,5-a]pyridin-7-yloxy)-2-fluoro-3-methylphenyl)amino)pyrido[3,2-d]pyrimidin-6-yl)-2,2-dimethylpiperazin-1-yl)(bicyclo[1.1.0]butan-1-yl)methanone], the IC50 on ErbB2 WT (ErbB2 WT enzyme) is 69.1 nM; in assay [1] (ErbB2 YVMA phosphorylation), 408 nM; at EGFR wild type (EGFR WT) (setting [4]), no less than 5000 nM.

For the compound `CC#CC(=O)Nc1ccc2ncnc(Nc3ccc(Oc4ccc5c(c4)ncn5C)c(C)c3)c2n1` [Example 19, N-(4-((3-methyl-4-((1-methyl-1H-benzo[d]imidazol-5-yl)oxy)phenyl)amino)pyrido[3,2-d]pyrimidin-6-yl)but-2-ynamide], the IC50 turned out to be 17.8 nM on ErbB2 WT (ErbB2 WT enzyme), 205 nM at EGFR (EGFR enzyme) and 87.8 nM in assay [1] (ErbB2 YVMA phosphorylation).

In the case of `CNC(=O)/C=C/c1ccc2ncnc(Nc3ccc(Oc4ccc5c(c4)ncn5C)c(C)c3)c2n1` [Example 22, (E)-N-methyl-3-(4-((3-methyl-4-((1-methyl-1H-benzo[d]imidazol-5-yl)oxy)phenyl)amino)pyrido[3,2-d]pyrimidin-6-yl)acrylamide], the IC50 is 167 nM on ErbB2 WT (ErbB2 WT enzyme), no less than 10000 nM on EGFR (EGFR enzyme) and 80.6 nM in assay [1] (ErbB2 YVMA phosphorylation).

For `CC#CC(=O)N1C[C@@H]2CC[C@H]1CN2c1ccc2ncnc(Nc3ccc(Oc4ccn5ncnc5c4)c(C)c3F)c2n1` [Example 329], the IC50 worked out at 103 nM against ErbB2 WT (ErbB2 WT enzyme assay), 73.7 nM in assay [1] (setting [2]) and 1420 nM at EGFR wild type (EGFR WT) (setting [3]).

Turning to `C=CS(=O)(=O)N(C)c1ccc2ncnc(Nc3ccc(Oc4ccc5c(c4)ncn5C)c(C)c3)c2n1` [Example 21, N-methyl-N-(4-((3-methyl-4-((1-methyl-1H-benzo[d]imidazol-5-yl)oxy)phenyl)amino)pyrido[3,2-d]pyrimidin-6-yl)ethenesulfonamide], the IC50 against ErbB2 WT (ErbB2 WT enzyme) is 83.2 nM; against EGFR (EGFR enzyme) it was 466 nM; in assay [1] (ErbB2 YVMA phosphorylation) it was 250 nM.
